Measured values reported in article PMC6592621 (Experimental neurology, 2019).

Legend:
[1] = in mice; ref Parkinson Study Group, 2007; cited from earlier work
185 other kinases = conditions: at 1uM; ref Goodfellow et al., 2013; cited from earlier work
[2] = over 4 weeks in subjects with PD; ref Parkinson Study Group, 2007; cited from earlier work
striatal TH = test: Western blot of striatal TH in MPTP model; type: in vivo, C57BL/6J mice; conditions: 20 mg/kg MPTP for 5 days, vs neurotoxin vehicle or drug vehicle
striatal DA = test: HPLC of striatal neurochemistry in MPTP model; type: in vivo, C57BL/6J mice; conditions: MPTP 20 mg/kg s.c. 5 days, vs neurotoxin vehicle or drug vehicle
TH+ neurons in the SNpc = type: in vivo, C57BL/6J mice; conditions: MPTP-treated mice vs neurotoxin vehicle or drug vehicle controls
p38 = conditions: treatment in mice; ref Dong et al., 2016; cited from earlier work
p46-JNK = conditions: treatment in mice; ref Dong et al., 2016; cited from earlier work
p54-JNK = conditions: treatment in mice; ref Dong et al., 2016; cited from earlier work
CD68 expression = conditions: mouse EAE hippocampus; ref Bellizzi et al., 2018; cited from earlier work

CCSCc1ccc2c(c1)c1c3c(c4c5cc(CSCC)ccc5n5c4c1n2[C@H]1C[C@](O)(C(=O)OC)[C@]5(C)O1)CNC3=O [CEP-1347]
brain/plasma ratio [1]: < 0.2
number of other kinases with 50% inhibition (185 other kinases): 185
safety and tolerability [2]: safe and well tolerated

CN1CC=C(c2ccccc2)CC1 [MPTP, 1-methyl-4-phenyl-1,2,3,6-tetrahydropyridine]
reduction in striatal TH expression (striatal TH): approximately 50%
reduction in striatal dopamine (striatal DA): approximately 50%
reduction in the number of TH+ neurons in the SNpc (TH+ neurons in the SNpc): approximately 84%

CN1CCN(Cc2ccc(-c3cnc4[nH]cc(-c5ccc6[nH]ccc6c5)c4c3)cc2)CC1 [URMC-099]
decrease in phosphorylation of p38 (p38): 21.5%
decrease in phosphorylation of p46-JNK (p46-JNK): 17.3%
decrease in phosphorylation of p54-JNK (p54-JNK): 23.7%
effect on CD68 expression (CD68 expression): prevented increased CD68 expression
